Data set [1] is described as follows: Drug metabolism in heparinized pooled human plasma at pH 7.5 assessed as formation of (S)-2-(2-ethoxy-4-(5-((((R)-2-((R)-1-(N-hydroxyformamido)propyl)heptanamido)methyl) carbamoyl)furan-2-yl)benzamido)succinic acid at 100 to 2000 ng/ml incubated up to 4 or 24 hrs by LC-MS/MS analysis. It counts as ADME, cell-free. To be noted: pH 7.5, 24 h.
The nature of data set [2]: Reduction in mature collagen deposition levels in human cardiac fibroblasts incubated for 24 to 48 hrs by immunostaining based assay. It counts as functional.
Data set [3] is described as follows: Stability in pH 7.96 assessed as compound purity level at 1 mg/ml heated to 40 degC and measured at 200 hrs by LC/MS analsysis. The data set is classed as physicochemical. To be noted: buffer, read-out: Stability.
The nature of data set [4]: Drug metabolism in heparinized pooled human plasma at pH 7.5 assessed as conversion to active compound at 100 to 2000 ng/ml incubated for 4 by LC-MS/MS analysis. The data set is classed as ADME, cell-free.
The nature of data set [5]: Reduction in PICP levels in human cardiac fibroblasts incubated for 24 to 48 hrs by ELISA. It counts as functional. In general terms: An ELISA detects its analyte on a solid surface through an enzyme-linked reagent.
Data set [6] is described as follows: Drug metabolism in heparinized pooled human plasma at pH 7.5 assessed as formation of (S)-2-(2-(carboxymethoxy)-4-(5-((((R)-2-((R)-1-(N-hydroxyformamido)propyl)heptanamido)methyl)carbamoyl)furan-2-yl)benzamido)succinic acid at 100 to 2000 ng/ml incubated up to 4 or 24 hrs by LC-MS/MS analysis. It counts as ADME, cell-free. To be noted: pH 7.5, 24 h.
A short description of data set [7]: Drug metabolism in heparinized pooled human plasma at pH 7.5 assessed as formation of (3-ethoxy-5-(5-((((R)-2-((R)-1-(N-hydroxyformamido)propyl)heptanamido)methyl)carbamoyl) furan-2-yl)phenyl)phosphonic acid at 100 to 2000 ng/ml incubated up to 4 or 24 hrs by LC-MS/MS analysis. It counts as ADME, cell-free. To be noted: pH 7.5, 24 h.
For data set [8], the target named is T1, Tolloid-like protein 2 (Homo sapiens, UniProt Q9Y6L7).
T1 sequence (Q9Y6L7 whole entry): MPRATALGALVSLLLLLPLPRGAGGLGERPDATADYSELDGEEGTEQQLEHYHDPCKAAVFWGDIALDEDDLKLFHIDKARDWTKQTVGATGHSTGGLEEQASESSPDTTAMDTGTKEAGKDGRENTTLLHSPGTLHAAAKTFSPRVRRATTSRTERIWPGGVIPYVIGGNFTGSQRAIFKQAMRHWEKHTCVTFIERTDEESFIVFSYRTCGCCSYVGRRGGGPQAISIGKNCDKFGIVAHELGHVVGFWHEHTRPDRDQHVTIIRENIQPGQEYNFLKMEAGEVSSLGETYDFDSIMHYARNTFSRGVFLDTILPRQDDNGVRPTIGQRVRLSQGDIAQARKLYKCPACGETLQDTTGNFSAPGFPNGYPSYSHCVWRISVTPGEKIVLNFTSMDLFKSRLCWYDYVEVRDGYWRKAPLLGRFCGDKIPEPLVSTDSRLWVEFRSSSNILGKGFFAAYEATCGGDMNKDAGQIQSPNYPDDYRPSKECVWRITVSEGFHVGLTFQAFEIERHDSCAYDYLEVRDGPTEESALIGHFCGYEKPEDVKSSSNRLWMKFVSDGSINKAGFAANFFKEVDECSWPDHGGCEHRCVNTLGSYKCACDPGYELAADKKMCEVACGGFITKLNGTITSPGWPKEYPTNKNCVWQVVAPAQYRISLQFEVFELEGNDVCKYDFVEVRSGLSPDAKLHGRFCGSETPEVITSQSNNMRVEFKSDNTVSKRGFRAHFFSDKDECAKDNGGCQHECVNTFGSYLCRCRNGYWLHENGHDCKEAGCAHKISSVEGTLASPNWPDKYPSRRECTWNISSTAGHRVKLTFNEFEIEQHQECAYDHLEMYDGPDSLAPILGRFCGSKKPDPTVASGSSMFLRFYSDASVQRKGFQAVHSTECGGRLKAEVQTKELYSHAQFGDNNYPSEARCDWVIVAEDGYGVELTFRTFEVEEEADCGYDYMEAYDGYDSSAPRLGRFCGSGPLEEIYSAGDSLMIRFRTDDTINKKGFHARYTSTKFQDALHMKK
Description: Inhibition of C-terminal Avi-6x-His epitope tagged and N-terminal human RAGE signal sequence tagged recombinant human TLL2 (26 to 1015 amino acids) expressed in CHOE1A cells incubated for 60 mins with promyostatin peptide substrate by FRET based assay. It counts as cell-based.

For data set [9], the target named is T2, Bone morphogenetic protein 1 (Homo sapiens, UniProt P13497).
T2 sequence (P13497 whole entry): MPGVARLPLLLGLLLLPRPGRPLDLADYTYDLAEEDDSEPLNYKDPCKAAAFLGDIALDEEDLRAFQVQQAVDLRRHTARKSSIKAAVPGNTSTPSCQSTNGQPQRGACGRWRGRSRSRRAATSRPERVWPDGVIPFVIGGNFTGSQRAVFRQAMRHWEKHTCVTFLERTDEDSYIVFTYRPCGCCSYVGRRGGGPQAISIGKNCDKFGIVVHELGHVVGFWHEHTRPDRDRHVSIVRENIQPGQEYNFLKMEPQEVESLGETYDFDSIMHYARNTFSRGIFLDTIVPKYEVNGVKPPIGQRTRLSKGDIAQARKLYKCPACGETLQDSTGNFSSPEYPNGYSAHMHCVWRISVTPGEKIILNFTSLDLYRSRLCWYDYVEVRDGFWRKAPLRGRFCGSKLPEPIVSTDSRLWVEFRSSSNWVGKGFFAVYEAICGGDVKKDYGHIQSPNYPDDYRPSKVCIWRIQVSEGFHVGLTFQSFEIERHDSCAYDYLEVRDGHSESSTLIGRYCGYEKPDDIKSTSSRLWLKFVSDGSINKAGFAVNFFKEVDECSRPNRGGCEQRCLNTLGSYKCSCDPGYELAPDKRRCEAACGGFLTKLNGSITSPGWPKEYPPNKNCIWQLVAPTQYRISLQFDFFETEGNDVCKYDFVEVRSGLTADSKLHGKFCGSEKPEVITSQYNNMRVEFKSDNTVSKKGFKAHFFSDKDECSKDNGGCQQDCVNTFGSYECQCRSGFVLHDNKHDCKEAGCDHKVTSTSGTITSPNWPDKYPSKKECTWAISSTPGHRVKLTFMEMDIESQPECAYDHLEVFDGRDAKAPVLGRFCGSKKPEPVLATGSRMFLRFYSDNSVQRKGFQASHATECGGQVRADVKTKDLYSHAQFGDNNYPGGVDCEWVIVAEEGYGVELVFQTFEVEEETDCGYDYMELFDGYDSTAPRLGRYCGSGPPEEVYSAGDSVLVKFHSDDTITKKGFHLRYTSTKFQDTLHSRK
Description: Inhibition of C-terminal FLAG-6x-His epitope tagged and N-terminal human RAGE signal sequence tagged human BMP1 (121 to 721 amino acids) expressed in CHO-E1a cells pre-incubated for 10 mins before promyostatin peptide substrate addition and measured after 60 mins using 0.5 nM BMP1 by FRET based assay. The data set is classed as cell-based.

Data set [10] addresses Tolloid-like protein 1 (Homo sapiens, UniProt O43897, I156V/N221S/V284A). Description: Inhibition of recombinant human TLL1 I156V/N221S/V284A mutant expressed in CHOE1A cells pre-incubated for 10 mins before promyostatin peptide substrate addition and measured after 60 mins by FRET based assay. The data set is classed as cell-based.

Some results are limits rather than exact numbers.

What is called IC50 is the concentration that gives 50% inhibition.

Tolloid-like protein 1, sequence (O43897 148-1013 I156V/N221S/V284A limits assumed): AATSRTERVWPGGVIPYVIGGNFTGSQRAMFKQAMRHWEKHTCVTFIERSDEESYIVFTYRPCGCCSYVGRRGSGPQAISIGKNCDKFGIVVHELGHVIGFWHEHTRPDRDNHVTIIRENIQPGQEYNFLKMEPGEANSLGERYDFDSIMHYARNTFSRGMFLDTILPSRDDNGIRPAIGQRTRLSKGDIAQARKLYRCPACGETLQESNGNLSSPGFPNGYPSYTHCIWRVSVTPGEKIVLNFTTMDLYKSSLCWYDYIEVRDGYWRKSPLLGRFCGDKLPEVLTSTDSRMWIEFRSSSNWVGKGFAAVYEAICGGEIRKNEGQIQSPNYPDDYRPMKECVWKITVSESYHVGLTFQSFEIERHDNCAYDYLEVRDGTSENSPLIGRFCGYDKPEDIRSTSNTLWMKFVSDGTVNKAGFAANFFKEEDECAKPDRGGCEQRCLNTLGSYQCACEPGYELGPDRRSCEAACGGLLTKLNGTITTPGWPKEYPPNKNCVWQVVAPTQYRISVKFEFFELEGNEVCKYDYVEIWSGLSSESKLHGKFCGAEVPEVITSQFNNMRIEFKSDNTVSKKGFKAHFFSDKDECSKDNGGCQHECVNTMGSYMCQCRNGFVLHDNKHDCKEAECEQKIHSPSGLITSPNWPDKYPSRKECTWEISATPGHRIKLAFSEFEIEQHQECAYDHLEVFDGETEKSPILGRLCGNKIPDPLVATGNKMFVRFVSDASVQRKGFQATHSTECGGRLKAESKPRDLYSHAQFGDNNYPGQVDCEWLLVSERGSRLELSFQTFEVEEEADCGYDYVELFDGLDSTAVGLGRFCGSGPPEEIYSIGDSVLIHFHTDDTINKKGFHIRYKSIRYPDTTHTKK

On to `CCCCC[C@@H](C(=O)NCNC(=O)c1ccc(-c2ccc(C(=O)N[C@@H](CC(=O)O)C(=O)O)c(OCC)c2)o1)[C@@H](CC)N(C=O)OC(=O)C(C)(C)C`, for which the figures for the Drug metabolism entry in [1] and in [4] were “Metabolite_Detected” and > 10%, respectively. Also, the values for the IC50 in [2] and in data set [5] were < 1000 nM and < 3980 nM, respectively. In [3], the remaining at 200 h, 1 mg/ml is < 80%.

As for `CCCCC[C@@H](C(=O)NCNC(=O)c1ccc(-c2ccc(C(=O)N[C@@H](CC(=O)O)C(=O)O)c(OCC(=O)O)c2)o1)[C@@H](CC)N(C=O)OC(=O)c1ccccc1O`, the Drug metabolism result is on record as “Metabolite_Detected” in data set [6] and > 10% in data set [4]. Moreover, the remaining at 200 h, 1 mg/ml in [3] was < 80%.

Turning to `CCCCC[C@@H](C(=O)NCNC(=O)c1ccc(-c2cc(OCC)cc(P(=O)(O)O)c2)o1)[C@@H](CC)N(C=O)OCc1oc(=O)oc1C`, the values for the Drug metabolism result in data set [7] and in data set [4] were “Metabolite_Detected” and > 10%, respectively. In addition, in [3], the remaining at 200 h, 1 mg/ml was < 80%. In addition, the IC50 in data set [5] was < 3980 nM.

Take `CCCCC[C@@H](C(=O)NCNC(=O)c1ccc(-c2ccc(C(=O)N[C@@H](CC(=O)O)C(=O)O)c(OCC(=O)O)c2)o1)[C@@H](CC)N(C=O)OC(=O)OC(C)(C)C`: the Drug metabolism entry is recorded as “Metabolite_Detected” in data set [6] and > 10% in data set [4]. Besides, the remaining at 200 h, 1 mg/ml in [3] is < 80%. The IC50 in data set [5] is < 3980 nM.

As to `CCCCC[C@@H](C(=O)NCNC(=O)c1ccc(-c2cc(OCC)cc(P(=O)(O)O)c2)o1)[C@@H](CC)N(C=O)OCOC(=O)C(C)(C)C`, the Drug metabolism entry in data set [7] was “Metabolite_Detected”; in data set [4], > 10%. The remaining at 200 h, 1 mg/ml in data set [3] was < 80%.

Turning to `CCCCC[C@@H](C(=O)NCNC(=O)c1ccc(-c2cc(OCC)cc(P(=O)(O)O)c2)o1)[C@@H](CC)N(C=O)OCOP(=O)(O)O`, the Drug metabolism entry in data set [7] is “Metabolite_Detected”; in data set [4], > 10%.

As to `CCCCC[C@@H](C(=O)NCNC(=O)c1ccc(-c2ccc(C(=O)N[C@@H](CC(=O)O)C(=O)O)c(OCC(=O)O)c2)o1)[C@@H](CC)N(C=O)OC(=O)c1ccccc1OC(C)=O`, the Drug metabolism entry in data set [6] was “Metabolite_Detected”; in data set [4], > 10%. In data set [3], the remaining at 200 h, 1 mg/ml is < 80%. In addition, the concentration for half-maximal inhibition (IC50) in [5] is < 3980 nM.

In the case of `CCCCC[C@@H](C(=O)NCNC(=O)c1ccc(-c2ccc(C(=O)N[C@@H](CC(=O)O)C(=O)O)c(OCC(=O)O)c2)o1)[C@@H](CC)N(C=O)OC(=O)c1ccccc1`, the Drug metabolism result is “Metabolite_Detected” in data set [6] and > 10% in data set [4]. Moreover, the remaining at 200 h, 1 mg/ml in data set [3] was < 80%.

Turning to `CCCCC[C@@H](C(=O)NCNC(=O)c1ccc(-c2ccc(C(=O)N[C@@H](CC(=O)O)C(=O)O)c(OCC(=O)O)c2)o1)[C@@H](CC)N(C=O)OC(=O)c1cccnc1`, the Drug metabolism entry is on record as “Metabolite_Detected” in data set [6] and > 10% in data set [4]. In addition, the remaining at 200 h, 1 mg/ml in data set [3] is < 80%. In addition, in data set [5], the IC50 is < 3980 nM.

Take `CCCCC[C@@H](C(=O)NCNC(=O)c1ccc(-c2ccc(C(=O)N[C@@H](CC(=O)O)C(=O)O)c(OCC)c2)o1)[C@@H](CC)N(C=O)OC(=O)Cc1ccccc1`: the Drug metabolism entry is listed as “Metabolite_Detected” in [1] and > 10% in data set [4]. The remaining at 200 h, 1 mg/ml in [3] was < 80%.

As for `CCCCC[C@@H](C(=O)NCNC(=O)c1ccc(-c2ccc(C(=O)OCC)cc2)o1)[C@@H](CC)N(O)C=O`, the IC50 in data set [8] is 398 to 794 nM; in data set [9] it was 126 to 316 nM; in data set [5], 398 to 3980 nM; in data set [10] it was 251 to 398 nM.

With `CCCCC[C@@H](C(=O)NCNC(=O)c1ccc(-c2ccc(C(=O)OCCN(C)C)cc2)o1)[C@@H](CC)N(O)C=O`, the IC50 is 398 to 794 nM in data set [8], 126 to 316 nM in data set [9], 398 to 3980 nM in [5] and 251 to 398 nM in [10].

Consider `CCCCC[C@@H](C(=O)NCNC(=O)c1ccc(-c2ccc(C(=O)N[C@@H](CC(=O)O)C(=O)O)c(OCC)c2)o1)[C@@H](CC)N(C=O)OC(=O)c1ccccc1`, for which the Drug metabolism result in [1] is “Metabolite_Detected”; in data set [4], > 10%. Also, in [3], the remaining at 200 h, 1 mg/ml is < 80%. In addition, in data set [5], the IC50 was < 3980 nM.

As to `CCCCC[C@@H](C(=O)NCNC(=O)c1ccc(-c2ccc(C(=O)OCCCC)cc2)o1)[C@@H](CC)N(O)C=O`, the IC50 in [8] is 398 to 794 nM; in data set [9] it was 126 to 316 nM; in [5], 398 to 3980 nM; in data set [10] it was 251 to 398 nM.

Turning to `CCCCC[C@@H](C(=O)NCNC(=O)c1ccc(-c2cc(OCC)cc(P(=O)(O)O)c2)o1)[C@@H](CC)N(C=O)OC(=O)Cc1ccccc1`, the results for the Drug metabolism result in data set [7] and in data set [4] were “Metabolite_Detected” and > 10%, respectively. Further, the remaining at 200 h, 1 mg/ml in data set [3] was < 80%.

Turning to `CCCCC[C@@H](C(=O)NCNC(=O)c1ccc(-c2cc(OCC)cc(P(=O)(Oc3ccccc3)Oc3ccccc3)c2)o1)[C@@H](CC)N(O)C=O`, the 50% inhibitory concentration (IC50) in [9] is 126 to 316 nM; in data set [5], < 3980 nM.

`CCCCC[C@@H](C(=O)NCNC(=O)c1ccc(-c2ccc(C(=O)N[C@@H](CC(=O)O)C(=O)O)c(OCC(=O)O)c2)o1)[C@@H](CC)N(C=O)OC(=O)c1ccccc1C`: the Drug metabolism result in [6] is on record as “Metabolite_Detected”; in data set [4], > 10%. The remaining at 200 h, 1 mg/ml in [3] was < 80%.

Turning to `CCCCC[C@@H](C(=O)NCNC(=O)c1ccc(-c2cc(OCC)cc(P(=O)(O)O)c2)o1)[C@@H](CC)N(C=O)OC(=O)c1ccccc1`, the Drug metabolism entry is listed as “Metabolite_Detected” in data set [7] and > 10% in data set [4]. Besides, the remaining at 200 h, 1 mg/ml in [3] is < 80%.
